Source: US12274756B2, “Methods of treating and diagnosing epilepsy” (YALE UNIVERSITY, priority 2019, dated 2025)

Tested on: Rheb^CA neurons
Experiment: Whole cell patch clamp recording in acute slices, Rheb^CA (FCM) neurons
Format: cell-based, mice
Experimental: Each DNA plasmid was diluted in sterile PBS (pH 7.4) to a final concentration of 1.5-3 μg/μl (specific concentrations below). About 1 μl of DNA solution containing 0.1% fast green was injected into the lateral ventricle of E15.5±0.5 fetuses with a glass pipette. After injection, PBS soaked tweezer-type electrodes (model 520, BTX) were positioned on heads of the fetuses across the uterine wall and 6 square-pulses (42V, 50 ms duration, 950 ms intervals) were applied using a pulse generator (ECM830, BTX), Mice were prescreened for successful electroporation on a fluorescence enabled stereo microscope (SZX16, Olympus) prior to recruitment for EEG monitoring. To generate epilepsy-associated FCM, a DNA solution composed of pCAG-RhebS16H (Rheb^CA, 2 μg/μl) and pCAG-tdTomato (1 μg/μl) was injected in half of all fetuses while pCAG-GFP (3 μg/μl) containing solution was injected in the remaining littermates as controls. To silence FCM neurons, pCAG-Kir2.1-T2A-tdTomato (2 μg/μl)+pCAG-Rheb^CA (2 μg/μl) was injected in half of the fetuses while the remaining half received pCAG-Rheb^CA (2 μg/μl)+pCAG-GFP (2 μg/μl) as controls.
1-5-week-old mice were used for acute slices. Tissue was dissected and sliced in ice cold artificial cerebral spinal fluid (aCSF)oxygenated with 95% O2/5% CO2. The aCSF contained (all in mM): 124 NaCl, 3 KCl, 1.25 NaH2PO4, 1 MgSO4, 26 NaHCO3, 10 Dextrose, 2 CaCl2, 0.4 ascorbate, 4 Na-Lactate, 2 Na-Pyruvate (290±5 mOsm/kg, pH 7.2). Coronal sections (350 μm) were prepared using a vibratome (Vibratome 1000). Sections were incubated in aCSF at 32° C. for 45 minutes before returning to room temperature (25° C.) where they were kept for 8 to 10 hours during experimentation. Fluorescent neurons in the mPFC were visualized using epifluorescence on an Olympus BX51WI microscope with a 40× water immersion objective (Olympus, LUMPlanFL/IR). Whole-cell recordings were performed at 28° C. using pulled glass pipettes ([…]) filled with internal solution (in mM: 110 K-gluconate, 4 KCL, 10 HEPES, 10 di-tris-phosphocreatine, 4 Mg-ATP, 0.3 Na-GTP). Recordings were acquired with an amplifier (Axopatch 200B, Molecular Devices), The resting membrane potential was recorded within the first 10 seconds after achieving whole, cell configuration in current-clamp mode, while the cell is at rest without any holding current. The membrane conductance was calculated using the average membrane potential change from ten hyperpolarizing current injections of −500 pA in current-clamp mode when the cell is at rest. The action potential half width was calculated at half of the peak amplitude of a single action potential induced by current injection. The action potential firing threshold was defined as the membrane potential at which the first derivative of an action potential in current-clamp mode achieves 10% of its peak velocity (dV/dt). The action potential input-output curve was generated by injecting positive current in current-clamp mode from 0 to 2 nA at 100 pA increments for 500 msec.

[1] = Rheb^CA neurons with zatebradine

SMILES	neurons generating repetitive action potentials (Rheb^CA neurons, forskolin bath-application)	h current amplitude difference (ΔI) (500 ms-long voltage step, Rheb^CA vs Rheb^CA+zatebradine)	residual inward current at −90 mV [1]	resting membrane potential (RMP) [1]	hyperpolarization-induced voltage sag response (Rheb^CA neurons, −500 pA current step, zatebradine 40 μM)	HCN currents in Rheb^CA neurons before seizure onset (slices from P8-P12 mice)	hyperpolarization-activated inward currents (voltage-clamp steps from −40 to −130 mV, in the presence of zatebradine, not fully blocked)
C=C[C@@]1(C)CC(=O)[C@]2(O)[C@@]3(C)[C@@H](O)CCC(C)(C)[C@@H]3[C@H](O)[C@H](OC(C)=O)[C@@]2(C)O1 [forskolin]	4/9	–	–	–	–	–	–
COc1ccc(CCN(C)CCCN2CCc3cc(OC)c(OC)cc3CC2=O)cc1OC [zatebradine]	–	significantly reduced	no residual inward current	shifted RMP of cells to hyperpolarized values similar to those of control neurons	eliminated the sag response	zatebradine-sensitive	significantly reduced
